In US4866206A, “2-Halomethyl derivatives of 2-amino acids” (Merrell Dow France et Cie, priority 1988, dated 1989):
Where two headings read alike, the source gives them in different places.

How the values were obtained:
[1] = molecular target: T1, rat liver ornithine decarboxylase (Rattus norvegicus, UniProt P09057); experiment: time-dependent inhibition of rat liver ODC (in vitro); format: biochemical
T1 construct: rat liver ornithine decarboxylase in vitro; from tissue; host or cells: rat liver
T1 sequence (P09057 1-461): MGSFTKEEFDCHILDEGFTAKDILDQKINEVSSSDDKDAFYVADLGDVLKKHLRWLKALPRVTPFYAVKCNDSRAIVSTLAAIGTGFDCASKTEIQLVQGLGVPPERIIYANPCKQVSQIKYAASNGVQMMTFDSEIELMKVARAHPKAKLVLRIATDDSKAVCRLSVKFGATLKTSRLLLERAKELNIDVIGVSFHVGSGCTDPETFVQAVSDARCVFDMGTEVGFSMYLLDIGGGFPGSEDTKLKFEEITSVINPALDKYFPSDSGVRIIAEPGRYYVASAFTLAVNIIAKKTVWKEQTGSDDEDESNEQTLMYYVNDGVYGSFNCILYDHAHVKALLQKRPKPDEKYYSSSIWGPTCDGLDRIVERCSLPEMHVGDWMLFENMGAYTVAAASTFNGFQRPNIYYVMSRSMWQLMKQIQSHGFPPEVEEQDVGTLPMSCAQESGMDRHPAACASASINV

[2] = molecular target: T2, ornithine decarboxylase (Rattus norvegicus, UniProt P09057); experiment: ODC activity remaining in rat tissues after a single dose (in vivo); set-up: species or system rats
T2 construct: from tissue; host or cells: rat ventral prostate and thymus
T2 sequence (P09057 1-461): T1 sequence (P09057 1-461)
Method: The ODC inhibitory activity of a compound can be determined in vitro by the method described by B. Metcalf et al., J. Am. Chem. Soc., 100, 2551 (1978) and in vivo by the method of C. Danzin, Life Sciences, 24, 519 (1979).
2-Fluoromethyl-2,5-diaminopentanoic acid and 2-fluoromethyl-2,6-diaminohexanoic acid were tested for inhibition of ornithine decarboxylase in rats according to the procedure of C. Danzin et al., Life Sciences, 24, 519 (1979).

[3] = molecular target: T3, E. coli ODC (Escherichia coli, UniProt P21169); format: cell-based
T3 sequence (P21169 whole entry): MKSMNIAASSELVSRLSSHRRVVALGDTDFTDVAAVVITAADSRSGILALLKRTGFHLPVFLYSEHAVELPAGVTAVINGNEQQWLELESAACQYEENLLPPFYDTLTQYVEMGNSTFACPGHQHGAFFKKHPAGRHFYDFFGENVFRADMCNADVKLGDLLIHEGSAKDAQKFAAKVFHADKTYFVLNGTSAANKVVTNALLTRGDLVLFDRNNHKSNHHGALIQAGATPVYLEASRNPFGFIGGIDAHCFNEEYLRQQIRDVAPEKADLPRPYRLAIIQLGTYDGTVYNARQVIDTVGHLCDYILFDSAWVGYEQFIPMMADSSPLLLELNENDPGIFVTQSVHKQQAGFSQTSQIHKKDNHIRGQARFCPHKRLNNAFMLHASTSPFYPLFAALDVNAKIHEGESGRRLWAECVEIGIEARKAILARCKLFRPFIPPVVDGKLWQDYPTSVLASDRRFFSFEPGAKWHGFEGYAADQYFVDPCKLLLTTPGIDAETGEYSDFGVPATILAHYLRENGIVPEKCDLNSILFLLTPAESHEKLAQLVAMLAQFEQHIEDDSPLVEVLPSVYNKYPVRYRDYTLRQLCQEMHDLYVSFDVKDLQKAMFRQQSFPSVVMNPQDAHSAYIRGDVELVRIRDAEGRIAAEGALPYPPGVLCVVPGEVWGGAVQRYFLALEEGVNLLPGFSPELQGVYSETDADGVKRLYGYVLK

[4] = molecular target: T3, E. coli ODC; experiment: time-dependent inhibition of bacterial ODC (in vitro), E. coli; format: biochemical, Escherichia coli (M.R.C. 59); set-up: supernatant (approximately 16 mg protein/ml), used for the measurement of ornithine decarboxylase; endogenous in cells; host or cells: Escherichia coli M.R.C; 59, supernatant of sonicated cells
Method: (§1) 2-Fluoromethyl-2,5-diaminopentanoic acid (MFMO) was tested for in vitro inhibition of ornithine decarboxylase from Escherichia coli and from Pseudomonas aeruginosa according to the procedure described as follows:
(§2) Escherichia coli (M.R.C. 59) and Pseudomonas aeruginosa (A.T.C.C. 9027) were grown as described by Kallio et al., Biochem. J., 200, 69 (1981) in minimal medium [Davis et al., J. Bacteriol., 60, 17 (1950)] at 37° C. Cells were harvested by centrifugation (10 minutes at 10,000 g) and washed once with phosphate-buffered saline, pH 7.2 (0.125M NaCl, 10 mM Na2 HPO4, and 3 mM KH2 PO4). The cell pellet was suspended in 10 mM Tris/HCl (pH 7.5) containing 1 mM dithiothreitol and 0.1 mM EDTA and disrupted by sonication with a Branson Cell Disruptor 350 (5×30 sec, setting 3). Cell debris was removed by centrifugation at 25,000 g for 30 minutes and the supernatant (approximately 16 mg protein/ml), used for the measurement of ornithine decarboxylase, was stored frozen at -20° C. without appreciable loss of activity.
(§3) Ornithine decarboxylase activity was measured by the release of ^14 Co2. Assays contained 100 mM tris/HCl (pH 8.25 for E. coli and pH 7.5 for P. aeruginosa), 0.04 mM pyridoxal phosphate, 1mM dithiotheritol, 10 mM L-ornithine, 2.5 μCi D,L-[1-^14 C]ornithine and 80-120 μg bacterial protein in a total volume of 1 ml. […]
(§4) Time dependent irreversible inhibition of ornithine decarboxylase was determined according to the method of Kallio et al., Biochem. J., 200, 69 (1981). […] At selected times, 20 μl aliquots of the enzyme incubate were removed and transferred to the reaction flasks in which ODC activity was determined. […] The flasks were kept on ice until all time points were taken and then D,L-[1-^14 C]-ornithine was added and ODC activity was determined at 37° C. […]
(§5) Kinetic parameters for the inhibition of ODC were determined as described by Kitz, J. Biol. Chem., 237, 3245 (1962) as modified by Jung et al., Biochem. Biophys. […]

[5] = molecular target: T4, ODC of P. aeruginosa (Pseudomonas aeruginosa, UniProt Q9HVQ3); experiment: ODC inhibition in intact P. aeruginosa cells; format: cell-based; conditions: in words
T4 sequence (Q9HVQ3 1-387): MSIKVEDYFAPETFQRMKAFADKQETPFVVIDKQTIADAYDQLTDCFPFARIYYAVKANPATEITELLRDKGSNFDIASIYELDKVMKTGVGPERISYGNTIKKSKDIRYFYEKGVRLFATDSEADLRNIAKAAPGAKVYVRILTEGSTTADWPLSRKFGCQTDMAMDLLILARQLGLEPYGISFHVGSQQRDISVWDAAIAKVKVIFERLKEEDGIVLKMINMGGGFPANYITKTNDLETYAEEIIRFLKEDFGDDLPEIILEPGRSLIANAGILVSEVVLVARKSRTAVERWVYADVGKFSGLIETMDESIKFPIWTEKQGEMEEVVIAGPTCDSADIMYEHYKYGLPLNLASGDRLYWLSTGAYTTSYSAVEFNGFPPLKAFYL
Source text: However, by itself, α-MFMO has no effect on cell growth. Thus, […] inhibitory activity is useful only when used in combination with agents which will block other routes of polyamine biosynthesis, e.g. with both (a) α-difluoromethyl arginine, which inhibits arginine decarboxylase, and (b) dicyclohexylammonium sulfate, which inhibits spermidine synthesis.

[6] = molecular target: T5, P. aeruginosa ODC (Pseudomonas aeruginosa, UniProt Q9HVQ3); experiment: time-dependent inhibition of bacterial ODC (in vitro), P. aeruginosa; format: biochemical
T5 construct: 14CO2 release from ornithine
T5 sequence (Q9HVQ3 1-387): T4 sequence (Q9HVQ3 1-387)
Method: as §1, §2, §3, §4, §5

[7] = system: female mice; experiment: contragestational activity in mice; format: in vivo; conditions: for Resorption nodules gravid female / Viable feti gravid female: autopsy day 18
Method: 2-Fluoromethyl-2,5-diaminopentanoic acid (MFM) was tested for contragestational activity in mice according to the procedure of J. Fozard et al., Eur. J. Pharmacol., 65, 379 (1980).
In this experiment, the compound was given at the doses stated, subcutaneously (s.c.), every 6 hours starting at 12:00 on day 8 of gestation (4 doses). Animals were autopsied on day 18 and the numbers of viable feti and resorption nodules recorded.

[8] = system: P. aeruginosa (A.T.C.C. 9027); experiment: growth and polyamine content of P. aeruginosa cultures; format: cell-based; conditions: compound by itself
[9] = system: E. coli (M.R.C; 59); experiment: growth and polyamine content of E. coli cultures; format: cell-based; conditions: compound by itself
[10] = system: prostatic growth in rats; experiment: effect on prostatic growth in rats; format: in vivo; conditions: for % Weight loss of prostate: oral administration for 3 days
Source text: Accordingly, the compounds of Formula I can be used as contragestational agents (abortifacients) in female animals when it is desired to terminate early pregnancy. The use of 2-fluoromethyl-2,5-diaminopentanoic acid, and derivatives thereof, as a contragestational agent is described and claimed in U.S. Pat. No. 4,309,442 of P. Bey and M. Jung. […] Danzin et al., Biochem. J., 202, 175 (1982). Accordingly, the compounds of Formula I can be used to treat benign prostatic hypertrophy. The use of 2-fluoromethyl-2,5-diaminopentanoic acid, and derivatives thereof, in the treatment of benign prostatic hypertrophy is described and claimed in the U.S. Pat. No. 4,330,559 of P. Bey and M. Jung.
2-Fluoromethyl-2,5-diaminopentanoic acid was tested for its effect on prostatic growth in rats according to the procedure of C. Danzin et al., Biochem. J., 202, 175 (1982).
(a) Administered dissolved in drinking water employed as only water source for the animals.

[11] = concentration of compound which gives half-maximal rate of inhibition, time-dependent inhibition
[12] = half-life of inhibition at 10 μM inhibitor
[13] = half-life of inhibition at infinite concentration of inhibitor
[14] = 6 hours after single oral dose, 12.5 mg/kg
[15] = 6 hours after single oral dose, 25 mg/kg
[16] = 6 hours after single oral dose, 50 mg/kg
[17] = 6 hours after single oral dose, 100 mg/kg
[18] = 50 mg/kg s.c. every 6 hours from day 8 of gestation (4 doses)
[19] = 100 mg/kg s.c. every 6 hours from day 8 of gestation (4 doses)
[20] = 200 mg/kg s.c. every 6 hours from day 8 of gestation (4 doses)
[21] = 400 mg/kg s.c. every 6 hours from day 8 of gestation (4 doses)

NCCCCC(N)(CCl)C(=O)O (stereo not drawn) [MCML, 2-chloromethyl-2,6-diaminohexanoic acid]
T1/2 [1]: no apparent saturation | t1/2 at 10 μM [1]: 62 min

NCCCC(N)(CCl)C(=O)O (stereo not drawn) [MCMO, 2-chloromethyl-2,5-diaminopentanoic acid]
K I [1, 11]: no apparent saturation | t1/2 at 10 μM [1, 12]: 22 min | T1/2 [1, 13]: no apparent saturation

NCCCCC(N)(CF)C(=O)O (stereo not drawn) [MFML, 2-fluoromethyl-2,6-diaminohexanoic acid]
ODC Activity remaining in ventral prostate ([2]; single oral dose 200 mg/kg, 3 h): 66 ± 6 % Control | ODC Activity remaining in ventral prostate ([2]; single oral dose 200 mg/kg, 6 h): 44 ± 10 % Control | ODC Activity remaining in ventral prostate ([2]; single oral dose 200 mg/kg, 12 h): 74 ± 7 % Control | Ki [1, 11]: 430 µM | t1/2 at 10 μM [1, 12]: 88 min | T1/2 [1, 13]: 2.0 min

NCCCC(N)(CF)C(=O)O (stereo not drawn) [MFMO, 2-Fluoromethyl-2,5-diaminopentanoic acid]
inhibition at 2000 µM ([3]; bacteria grown in the presence of 2 mM of the compound): 99% | inhibition of ODC of E. coli in intact cells ([3]; intact cells, in words): inhibit | Ki ([4]; E. coli ODC, concentration giving half-maximal rate of inhibition, 20° C., pH 8.25): 360 µM | T1/2 ([4]; E. coli ODC, half-life at infinite concentrations): 12 min | inhibition of ODC of E. coli in vitro ([4]; in vitro, in words): inhibit | ODC Activity remaining in ventral prostate ([2]; 5 hours after single i.p. injection, 12.5 mg/kg): 70.5 ± 12.5 % Control | ODC Activity remaining in ventral prostate ([2]; 5 hours after single i.p. injection, 25 mg/kg): 77.0 ± 10.5 % Control | ODC Activity remaining in ventral prostate ([2]; 5 hours after single i.p. injection, 50 mg/kg): 57.0 ± 13.0 % Control | ODC Activity remaining in ventral prostate ([2]; 5 hours after single i.p. injection, 100 mg/kg): 14.5 ± 10.0 % Control | ODC Activity remaining in ventral prostate ([2]; 5 hours after single i.p. injection, 200 mg/kg): 15.5 ± 1.0 % Control | ODC Activity remaining in thymus [2, 14]: 81 ± 6 % Control | ODC Activity remaining in ventral prostate [2, 14]: 98 ± 18 % Control | ODC Activity remaining in thymus [2, 15]: 93 ± 8 % Control | ODC Activity remaining in ventral prostate [2, 15]: 67 ± 7 % Control | ODC Activity remaining in thymus [2, 16]: 99 ± 5 % Control | ODC Activity remaining in ventral prostate [2, 16]: 45 ± 7 % Control | ODC Activity remaining in thymus [2, 17]: 87 ± 6 % Control | ODC Activity remaining in ventral prostate [2, 17]: 44 ± 6 % Control | inhibition of ODC of P. aeruginosa in intact cells [5]: inhibit | Ki ([6]; P. aeruginosa ODC, concentration giving half-maximal rate of inhibition, 20° C., pH 7.5): 300 µM | T1/2 ([6]; P. aeruginosa ODC, half-life at infinite concentrations): 12 min | inhibition of ODC of P. aeruginosa in vitro ([6]; in vitro, in words): inhibit | Resorption nodules gravid female [7, 18]: 3.3 ± 1.1 | Viable feti gravid female [7, 18]: 9.1 ± 1.5 | Resorption nodules gravid female [7, 19]: 2.3 ± 0.6 | Viable feti gravid female [7, 19]: 12.7 ± 0.9 | Resorption nodules gravid female [7, 20]: 4.2 ± 1.2 | Viable feti gravid female [7, 20]: 9.2 ± 1.5 | Resorption nodules gravid female [7, 21]: 8.9 ± 1.9 | Viable feti gravid female [7, 21]: 5.4 ± 1.5 | interruption of embryogenesis ([7]; female mice, method of Fozard): capable of interrupting embryogenesis | Ki [1, 11]: 75 µM | t1/2 at 10 μM [1, 12]: 14 min | T1/2 [1, 13]: 1.6 min | effect on cell growth [8]: no effect | effect on cell growth [9]: no effect | % Weight loss of prostate ([10]; 3.75 g/l in drinking water): -10% | % Weight loss of prostate ([10]; 7.5 g/l in drinking water): -14% | % Weight loss of prostate ([10]; 15 g/l in drinking water): -19% | weight of the ventral prostate ([10]; rats, method of Danzin): significant decrease
